Laboratory results from patent US9987299B2, “Methods of improving RNAi in well-differentiated airway epithelia” (University of Iowa Research Foundation, priority 2014, dated 2018).

System: RSV N and P protein
Assay: RSV protein immunoblot in infected HAE
Assay type: cell-based, Respiratory Syncytial Virus
Settings: PAF with RSV N DsiRNA; immunoblot 48 hours after infection
From the text: FIG. 6. […] HAE was either treated or untreated with PAF in concurrence with RSV N DsiRNA. Six hours later the cells were infected with RSV at an MOI of 1. Forty eight hours later, the cell washings from the apical surface was collected and assayed for viral titer (a). The cells were lysed and the proteins visualized after immunoprecipitation with anti-RSV antibodies (b) and the bands quantified by densitometry (c). Data are mean±SD from the results three different experiments, each using a different donor. ***p<0.001 (Student's t-test).
RSV infection of HAE for both for immunoblot and viral titer was done at an MOI of 1. The virus was thawed at 37° C. and diluted in MEM (0% FCS) to a volume of 70 μl (1MOI)/well. The cells in Millicell filters were rinsed with the same media once and the virus applied to the apical surface. The plate was incubated at 37° C. for a period of 2 hours. After the incubation period, the virus inoculum was rinsed with MEM three times to remove any traces of the virus. The plates were then incubated at 37° C. until used for the assay.
HAE were rinsed with PBS and lysed in RIPA buffer (1% NP-40, 0.5% sodium deoxycholate, 0.1% SDS, 50 mM Tris, protease inhibitors [complete; mini, EDTA-free; Roche Biochemicals, Indianapolis, Ind.]) for 30 minutes at 4° C. […] The supernatant was quantified by BCA protein assay kit (Pierce, Rockford, Ill.). […]

Substance: platelet activating factor [PAF]
- RSV N and P protein abundance compared to untreated control cells: reduced
